Results taken from patent US20140023611A1 (priority 2010, published 2014).

Key:
human NaP2b (SLC34A2) = molecular target: T1, human NaP2b (SLC34A2) (Homo sapiens, UniProt O95436); experiment: Inhibition of NaP2b-mediated Pi (33P) uptake in transfected HEK293 cells, human NaP2b; assay type: cell-based; details: read-out: pIC50 range for human NaP2b (converted)
T1 construct: host or cells: HEK293
T1 sequence (O95436 1-690): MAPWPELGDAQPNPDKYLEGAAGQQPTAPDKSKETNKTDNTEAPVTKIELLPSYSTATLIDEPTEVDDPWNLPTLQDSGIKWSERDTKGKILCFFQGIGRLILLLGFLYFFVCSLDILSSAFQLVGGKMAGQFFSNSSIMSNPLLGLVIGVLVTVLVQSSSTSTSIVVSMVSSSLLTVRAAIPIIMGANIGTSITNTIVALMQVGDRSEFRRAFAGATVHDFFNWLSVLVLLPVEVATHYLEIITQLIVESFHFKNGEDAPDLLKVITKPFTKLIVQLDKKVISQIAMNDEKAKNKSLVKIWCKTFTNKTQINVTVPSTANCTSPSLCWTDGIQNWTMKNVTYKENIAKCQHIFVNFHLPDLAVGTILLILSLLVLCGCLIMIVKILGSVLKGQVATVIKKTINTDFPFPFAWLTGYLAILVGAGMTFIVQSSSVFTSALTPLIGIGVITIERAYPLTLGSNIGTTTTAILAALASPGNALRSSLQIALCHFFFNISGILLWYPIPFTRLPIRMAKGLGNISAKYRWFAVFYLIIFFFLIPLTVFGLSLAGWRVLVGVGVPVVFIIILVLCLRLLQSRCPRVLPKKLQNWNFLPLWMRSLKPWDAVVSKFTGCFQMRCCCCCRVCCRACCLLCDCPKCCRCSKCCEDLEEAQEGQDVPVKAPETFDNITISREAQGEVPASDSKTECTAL
Summary of the method: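 Uptake of 33P-phosphate (100 uM KH2PO4 carrier, sodium vs choline buffer, pH 7.4) measured after 3-30 min at room temperature, with test compound at twelve concentrations from 0.1 nM to 30 uM in duplicate. Cells were HEK293 transfected with mutated human NaP2b (Thr insertion after 37, N39D) and treated with a PiT-silencing agent. pIC50 values from scintillation counts.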

rat NaP2b (SLC34A2) = molecular target: T2, rat NaP2b (SLC34A2) (Rattus norvegicus, UniProt Q9JJ09); experiment: Inhibition of NaP2b-mediated Pi (33P) uptake in transfected HEK293 cells, rat NaP2b; assay type: cell-based; details: 33P Pi uptake, 0.1 mM phosphate, value given as pIC50 range
T2 construct: host or cells: HEK293
T2 sequence (Q9JJ09 1-695): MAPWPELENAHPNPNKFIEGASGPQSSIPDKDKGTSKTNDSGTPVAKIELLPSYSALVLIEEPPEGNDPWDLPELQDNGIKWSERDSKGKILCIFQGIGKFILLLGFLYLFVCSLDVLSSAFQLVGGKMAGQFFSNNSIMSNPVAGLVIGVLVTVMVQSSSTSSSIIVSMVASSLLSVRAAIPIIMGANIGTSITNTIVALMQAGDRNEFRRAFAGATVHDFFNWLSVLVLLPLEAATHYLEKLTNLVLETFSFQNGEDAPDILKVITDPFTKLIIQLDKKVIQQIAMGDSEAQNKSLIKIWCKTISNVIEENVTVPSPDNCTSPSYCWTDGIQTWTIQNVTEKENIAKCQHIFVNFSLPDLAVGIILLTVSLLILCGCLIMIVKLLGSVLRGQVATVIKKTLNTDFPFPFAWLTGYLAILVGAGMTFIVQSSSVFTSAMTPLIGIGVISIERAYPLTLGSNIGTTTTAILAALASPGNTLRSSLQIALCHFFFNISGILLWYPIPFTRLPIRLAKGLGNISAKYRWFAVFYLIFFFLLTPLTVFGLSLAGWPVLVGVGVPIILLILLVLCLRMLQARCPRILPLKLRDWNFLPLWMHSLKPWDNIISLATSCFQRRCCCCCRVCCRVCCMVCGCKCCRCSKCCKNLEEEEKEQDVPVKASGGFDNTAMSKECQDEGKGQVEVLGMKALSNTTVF
Summary of the method: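 The cells transiently expressed NaP2b after Lipofectamine transfection. Each compound was run in duplicate over twelve concentrations, 0.1 nM–30 uM.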

Row | Structure (SMILES) | IC50 (human NaP2b (SLC34A2)) | IC50 (rat NaP2b (SLC34A2))
1 | CN(CCN1CCOCC1)C(=O)c1cccc(C(=O)Nc2ccc(OC3CCC3)cc2-c2cc(C(=O)N[C@H]3CCCc4ccccc43)ccn2)c1 [Example 132, N1-(2-(4-(((S)-1,2,3,4-tetrahydronaphthalen-1-yl)carbamoyl)pyridin-2-yl)-4-cyclobutoxyphenyl)-N3-methyl-N3-(2-morpholinoethyl)isophthalamide] | < 1000 nM | < 1000 nM
2 | CCN(CC)c1ccc(NC(=O)c2cccc(CSCCOCCOCCOCCOCCC(=O)NC(CO)CO)c2)c(-c2cc(C(=O)N[C@H]3CCCc4ccccc43)ccn2)c1 [Example 159, (S)-2-(5-(diethylamino)-2-(3-(20-hydroxy-19-(hydroxymethyl)-17-oxo-5,8,11,14-tetraoxa-2-thia-18-azaicosyl)benzamido)phenyl)-N-(1,2,3,4-tetrahydronaphthalen-1-yl)isonicotinamide] | < 1000 nM | < 1000 nM
3 | CN(CCN1CCC[C@H]1C(=O)NCCOCCOCCOCCC(=O)OC(C)(C)C)C(=O)c1cccc(C(=O)Nc2ccc(N3CCCCC3)cc2-c2cc(C(=O)N[C@H]3CCCc4ccccc43)ccn2)c1 [Example 192, tert-butyl 1-((S)-1-(2-(N-methyl-3-((4-(piperidin-1-yl)-2-(4-(((S)-1,2,3,4-tetrahydronaphthalen-1-yl)carbamoyl)pyridin-2-yl)phenyl)carbamoyl)benzamido)ethyl)pyrrolidin-2-yl)-1-oxo-5,8,11-trioxa-2-azatetradecan-14-oate] | < 1000 nM | < 1000 nM
4 | CCN(CC)c1ccc(NC(=O)c2cccc(COCCOCCOCCOCCOCCOCCN(C)CCN3CCOCC3)c2)c(-c2cc(C(=O)NCc3cccc(C(F)(F)F)c3)ccn2)c1 [Example 179, 2-(5-(diethylamino)-2-(3-(20-methyl-22-morpholino-2,5,8,11,14,17-hexaoxa-20-azadocosyl)benzamido)phenyl)-N-(3-(trifluoromethyl)benzyl)isonicotinamide] | 1000 to 7940 nM | 1000 to 7940 nM
5 | CN(CCN1CCCN(S(C)(=O)=O)CC1)C(=O)c1cccc(C(=O)Nc2ccc(N3CCCCC3)cc2-c2cc(C(=O)N[C@H]3CCCc4ccccc43)ccn2)c1 [Example 220, (S)—N1-methyl-N1-(2-(4-(methylsulfonyl)-1,4-diazepan-1-yl)ethyl)-N3-(4-(piperidin-1-yl)-2-(4-(1,2,3,4-tetrahydronaphthalen-1-ylcarbamoyl)pyridin-2-yl)phenyl)isophthalamide] | 1000 to 7940 nM | < 1000 nM
6 | CCN(CC)c1ccc(NC(=O)c2cccc(CCCOCCOCCOCCOCCC(=O)N3CCN(S(=O)(=O)c4ccc(C(=O)O)cc4)CC3)c2)c(-c2cc(C(=O)NCc3cccc(C(F)(F)F)c3)ccn2)c1 [Example 290, 4-(4-(16-(3-(4-(diethylamino)-2-(4-(3-(trifluoromethyl)benzylcarbamoyl)pyridin-2-yl)phenylcarbamoyl)phenyl)-4,7,10,13-tetraoxahexadecane)piperazin-1-ylsulfonyl)benzoic acid] | 1000 to 7940 nM | 10000 to 31600 nM
7 | CN(CCN1CCC(C(=O)OC(C)(C)C)CC1)C(=O)c1cccc(C(=O)Nc2ccc(N3CCCCC3)cc2-c2cc(C(=O)N[C@H]3CCCc4ccccc43)ccn2)c1 [Example 244, (S)-tert-butyl 1-(2-(N-methyl-3-(4-(piperidin-1-yl)-2-(4-(1,2,3,4-tetrahydronaphthalen-1-ylcarbamoyl)pyridin-2-yl)phenylcarbamoyl)benzamido)ethyl)piperidine-4-carboxylate] | 1000 to 7940 nM | 1000 to 7940 nM
8 | CCN(CC)c1ccc(NC(=O)c2cccc(CCCOCCOCCOCCOCCC(=O)NC(CO)(CO)CO)c2)c(-c2cc(C(=O)N[C@H]3CCCc4ccccc43)ccn2)c1 [Example 283] | 1000 to 7940 nM | < 1000 nM
9 | CCN(CC)c1ccc(NC(=O)c2cccc(CCCOCCOCCOCCOCCNC(=O)N(C)CCOCCOCCOCCOCCOCCOCCOC)c2)c(-c2cc(C(=O)NCc3cccc(C(F)(F)F)c3)ccn2)c1 [Example 273, 2-(5-(diethylamino)-2-(3-(23-methyl-24-oxo-2,5,8,11,14,17,20,28,31,34,37-undecaoxa-23,25-diazatetracontan-40-yl)benzamido)phenyl)-N-(3-(trifluoromethyl)benzyl)isonicotinamide] | 1000 to 7940 nM | 1000 to 7940 nM
10 | CCN(CC)c1ccc(NC(=O)c2cccc(CCCOCCOCCOCCOCCC(=O)N3CCC[C@H](C(=O)N(C)CCOCCOCCOCCOCCOCCOCCOC)C3)c2)c(-c2cc(C(=O)NCc3cccc(C(F)(F)F)c3)ccn2)c1 [Example 257, (S)-2-(2-(3-(16-(3-(2,5,8,11,14,17,20-heptaoxadocosan-22-yl(methyl)carbamoyl)piperidin-1-yl)-16-oxo-4,7,10,13-tetraoxahexadecyl)benzamido)-5-(diethylamino)phenyl)-N-(3-(trifluoromethyl)benzyl)isonicotinamide] | < 1000 nM | 1000 to 7940 nM
11 | O=C(O)c1cccc(COCc2cccc(C(=O)Nc3ccc(N4CCCCC4)cc3-c3cc(C(=O)NCc4cccc(C(F)(F)F)c4)ccn3)c2)c1 [Example 185, 3-((3-(4-(piperidin-1-yl)-2-(4-(3-(trifluoromethyl)benzylcarbamoyl)pyridin-2-yl)phenylcarbamoyl)benzyloxy)methyl)benzoic acid] | < 1000 nM | 1000 to 7940 nM
12 | CCN(CC)c1ccc(NC(=O)c2cccc(CCCOCCOCCOCCOCCC(=O)N3CCN(c4ccc(OCCOCCOCCOC)cc4)CC3)c2)c(-c2cc(C(=O)NCc3cccc(C(F)(F)F)c3)ccn2)c1 [Example 263, 2-(5-(diethylamino)-2-(3-(16-(4-(4-(2-(2-(2-methoxyethoxy)ethoxy)ethoxy)phenyl)piperazin-1-yl)-16-oxo-4,7,10,13-tetraoxahexadecyl)benzamido)phenyl)-N-(3-(trifluoromethyl)benzyl)isonicotinamide] | < 1000 nM | 1000 to 7940 nM
13 | CCN(CC)c1ccc(NC(=O)c2cccc(CCCOCCOCCOCCOCCOCCC(=O)O)c2)c(-c2cc(C(=O)N[C@H]3CCCc4ccccc43)ccn2)c1 [Example 306, (S)-19-(3-(4-(diethylamino)-2-(4-(1,2,3,4-tetrahydronaphthalen-1-ylcarbamoyl)pyridin-2-yl)phenylcarbamoyl)phenyl)-4,7,10,13,16-pentaoxanonadecan-1-oic acid] | < 1000 nM | < 1000 nM
14 | CCN(CC)c1ccc(NC(=O)c2cccc(COCCOCCOCCOCCOCCOCCN(CCO)CCO)c2)c(-c2cc(C(=O)NCc3cccc(C(F)(F)F)c3)ccn2)c1 [Example 178, 2-(5-(diethylamino)-2-(3-(22-hydroxy-20-(2-hydroxyethyl)-2,5,8,11,14,17-hexaoxa-20-azadocosyl)benzamido)phenyl)-N-(3-(trifluoromethyl)benzyl)isonicotinamide] | 1000 to 7940 nM | 1000 to 7940 nM
15 | COCCOCCOCCOCCOCCOCCOCCOC(=O)N1CCCN(CCN(C)C(=O)c2cccc(C(=O)Nc3ccc(N4CCCCC4)cc3-c3cc(C(=O)N[C@H]4CCCc5ccccc54)ccn3)c2)CC1 [Example 214, (S)-2,5,8,11,14,17,20-heptaoxadocosan-22-yl 4-(2-(N-methyl-3-(4-(piperidin-1-yl)-2-(4-(1,2,3,4-tetrahydronaphthalen-1-ylcarbamoyl)pyridin-2-yl)phenylcarbamoyl)benzamido)ethyl)-1,4-diazepane-1-carboxylate] | 1000 to 7940 nM | 1000 to 7940 nM
